According to US20140179800A1, “Inhibition of the Survival of Bladder Cancer by Cyclohexenone Compounds from Antrodia Camphorata” (Golden Biotechnology Corporation, priority 2009, published 2014):

Test system: bladder cancer cell line TSGH-8301
Assay: In vitro survival assay (MTT) for anti-bladder cancer effects
Assay type: cell-based
Conditions: TSGH-8301 human bladder carcinoma cells, 48 hours, survival rate
Method: Inhibiting effects of bladder cancer cells by cyclohexenone compounds of Antrodia camphorata from example 1 were assessed according to the anticancer-drug screening model of National Cancer Institute (NCI). The compound 4-hydroxy-2,3-dimethoxy-6-methyl-5-(3,7,11-trimethyl-dodeca-2,6,10-trienyl)-cyclohex-2-enone from example 1 was added into the culture media of bladder cancer cell line TSGH-8301 to determine the survival rates. Survival of cell was analyzed using MTT assay. TSGH-8301 cell line was a human bladder carcinoma cell line.
MTT assay is commonly used to analyze cell proliferation, survival rate of viable cells and cytotoxicity. MTT (3[4,5-dimethylthiazol-2-yl]-2,5-diphenyltetrazolium bromide) is a yellow dye which can be converted to water-insoluble purple formazan on the reductive cleavage of its tetrazolium ring by the succinate tetrazolium reductase in mitochondria of cells. The amount of formazan produced is used to detect the number of viable cells and calculate the survival rates.
The TSGH-8301 cells were cultivated in DMEM medium supplemented with 10% fetal bovine serum, 100 U/ml of Penicillin and 100 μg/ml of Streptomycin at 37° C., 5% CO2 for 24 hours. Proliferated cells were washed once with PBS, treated with 1× trypsin-EDTA, and centrifuged at 1200 rpm for 5 min. […] The absorbances were measured at 570 nm with an ELISA Reader to determine the survival rates.

SMILES: COC1=C(OC)C(O)C(C/C=C(\C)CC/C=C(\C)CCC=C(C)C)C(C)C1=O (stereo not shown) [formula 2, 4-hydroxy-2,3-dimethoxy-6-methyl-5-(3,7,11-trimethyl-dodeca-2,6,10-trienyl)-cyclohex-2-enone]
- IC50: 1.05 µg/mL
